Results as given in ChEMBL document CHEMBL1201862, “PubChem BioAssay data set” (2004).
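Five compound concentrations were applied to cells in 96-well plates for 48 hours; endpoints were derived by simple linear interpolation of the resulting dose-response curve. The concentration for 50% growth inhibition is given as GI50.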 Active and inactive are the calls of the source. No stated cut-off is given here; in the data, active = GI50 up to about 1.1 µM and inactive = higher.

How the values were obtained:
Experiment in all cases: NCI anticancer screen, dose series, 48 h
[1] = system: 786-0
[2] = system: COLO 205
[3] = system: HCT-116
[4] = system: Hs-578T
[5] = system: IGROV-1
[6] = system: K562
[7] = system: MDA-MB-231
[8] = system: MOLT-4
[9] = system: NCI-H226
[10] = system: NCI-H23
[11] = system: NCI-H522
[12] = system: RPMI-8226
[13] = system: SF-539
[14] = system: SK-OV-3
[15] = system: SNB-19
[16] = system: SR
[17] = system: UACC-62
[18] = system: HCC 2998

SMILES | GI50 [1] | GI50 [2] | GI50 [3] | GI50 [4] | GI50 [5] | GI50 [6] | GI50 [7] | GI50 [8] | GI50 [9] | GI50 [10] | GI50 [11] | GI50 [12] | GI50 [13] | GI50 [14] | GI50 [15] | GI50 [16] | GI50 [17] | GI50 [18]
CN(NC(=O)/C(=C\c1ccco1)NC(=O)c1ccccc1)c1cn[nH]c(=O)c1Cl | 41.3 µM (inactive) | > 100 µM (inactive) | 51.5 µM (inactive) | 52.1 µM (inactive) | 49.3 µM (inactive) | 60.1 µM (inactive) | > 100 µM (inactive) | 29.6 µM (inactive) | 45.6 µM (inactive) | > 100 µM (inactive) | 28.1 µM (inactive) | 21.1 µM (inactive) | 24.9 µM (inactive) | > 100 µM (inactive) | 97.9 µM (inactive) | 29.9 µM (inactive) | > 100 µM (inactive) | 
CN(C(=O)C1=CCCCCC1)c1ccccc1I | 27.8 µM (inactive) | 15.8 µM (inactive) | 25.9 µM (inactive) | 1.27 µM (inactive) | 32.8 µM (inactive) | 59.2 µM (inactive) | 67.8 µM (inactive) | 49.3 µM (inactive) |  | 38.2 µM (inactive) |  | 35.5 µM (inactive) |  | 43.5 µM (inactive) | 62.5 µM (inactive) | 39 µM (inactive) | 33.2 µM (inactive) | 45.9 µM (inactive)
O=C(O/N=C1/CCC/C1=C\c1ccccc1)c1ccccc1 | > 100 µM (inactive) | > 100 µM (inactive) | > 100 µM (inactive) |  | > 100 µM (inactive) | 38.7 µM (inactive) |  | 27.4 µM (inactive) | > 100 µM (inactive) | > 100 µM (inactive) | 53 µM (inactive) | 50.5 µM (inactive) | > 100 µM (inactive) | > 100 µM (inactive) |  | 44.4 µM (inactive) | > 100 µM (inactive) | 
CC/C=C\C/C=C\C/C=C\CCCCCCCC(=O)OCC(O)CO (configuration not stated) | > 63.1 µM (inactive) | 70.5 µM (inactive) | > 55.6 µM (inactive) |  | > 92.3 µM (inactive) | 2.46 µM (inactive) |  | > 46.2 µM (inactive) | > 100 µM (inactive) | > 74.5 µM (inactive) | 22 µM (inactive) | 43.4 µM (inactive) | > 100 µM (inactive) | > 100 µM (inactive) | > 100 µM (inactive) | 1 µM (active) | > 100 µM (inactive) | > 100 µM (inactive)
Cc1ccc2c(c1)CC1(C2)Cc2ccc(C)cc2C1=O (configuration not stated) | 16.8 µM (inactive) | 15.4 µM (inactive) | 21.2 µM (inactive) | 20.7 µM (inactive) | 36 µM (inactive) | 22.8 µM (inactive) | 21.5 µM (inactive) | 14.9 µM (inactive) | 11.5 µM (inactive) | 36.5 µM (inactive) | 19.9 µM (inactive) | 22.3 µM (inactive) | 26.2 µM (inactive) | 59.3 µM (inactive) | 61.4 µM (inactive) | 12.6 µM (inactive) |  | 25.9 µM (inactive)
CCC(=O)C1(N2CCOCC2)CCN(CCCC(=O)c2ccc(F)cc2)CC1 | > 100 µM (inactive) | > 100 µM (inactive) | > 100 µM (inactive) | > 100 µM (inactive) | > 100 µM (inactive) | > 100 µM (inactive) | > 100 µM (inactive) | > 100 µM (inactive) | > 100 µM (inactive) | > 100 µM (inactive) | > 100 µM (inactive) | > 100 µM (inactive) | > 100 µM (inactive) | > 100 µM (inactive) | > 100 µM (inactive) |  | > 100 µM (inactive) | > 100 µM (inactive)
CCCC(=O)Oc1ccc2c(C)cc(=O)oc2c1OC(=O)CCC | 73.3 µM (inactive) | 86.1 µM (inactive) | 39.6 µM (inactive) | 56.6 µM (inactive) | 45.7 µM (inactive) | 60 µM (inactive) | 42.6 µM (inactive) | 50 µM (inactive) | 34.8 µM (inactive) | 48.8 µM (inactive) |  | 26.4 µM (inactive) | > 100 µM (inactive) | > 100 µM (inactive) | > 100 µM (inactive) | 48.4 µM (inactive) | 60.3 µM (inactive) | 
